Experimental findings from BindingDB's records for doi:10.7270/Q2N58JS6 (University of Pittsburgh, 2007) are described below.

In the test the target is Serine/threonine-protein kinase PLK1 (Homo sapiens, UniProt P53350). Kind of test: H2O2 production by redox-active compounds – biochemical, 1 mM DTT, artefact control for Plk1 PBD inhibitor project, dose response (AID 936).
Sequence of Serine/threonine-protein kinase PLK1 (P53350 whole entry): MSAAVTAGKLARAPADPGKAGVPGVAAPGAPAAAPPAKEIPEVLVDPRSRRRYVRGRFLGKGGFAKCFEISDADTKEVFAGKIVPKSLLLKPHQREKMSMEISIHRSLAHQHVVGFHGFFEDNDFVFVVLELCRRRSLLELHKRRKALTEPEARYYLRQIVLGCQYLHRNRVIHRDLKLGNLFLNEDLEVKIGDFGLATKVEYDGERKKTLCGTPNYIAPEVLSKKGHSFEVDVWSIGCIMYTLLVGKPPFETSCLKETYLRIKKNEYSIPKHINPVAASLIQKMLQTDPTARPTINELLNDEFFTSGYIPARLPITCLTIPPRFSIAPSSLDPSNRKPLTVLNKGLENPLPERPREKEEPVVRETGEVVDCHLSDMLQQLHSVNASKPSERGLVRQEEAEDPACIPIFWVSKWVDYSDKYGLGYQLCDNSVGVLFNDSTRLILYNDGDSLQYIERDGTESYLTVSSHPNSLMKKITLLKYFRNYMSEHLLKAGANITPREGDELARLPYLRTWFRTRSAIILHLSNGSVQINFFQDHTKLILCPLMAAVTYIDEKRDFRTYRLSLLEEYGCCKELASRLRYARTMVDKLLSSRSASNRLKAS

In turn, `O=C1C(=O)c2ccccc2-c2ccccc21` gave a 50% effective concentration (EC50) of over 50 µM.
In the case of `Cc1ccc(-n2c(O)c(C=NCCN3CCOCC3)c(=O)[nH]c2=O)cc1` it was over 50 µM; in that of `CCOC(=O)c1ccc(NC(=O)c2c(O)[nH]c(=O)[nH]c2=O)cc1`, over 50 µM.
As for `O=c1[nH]cc(COCc2ccccc2)c(=O)[nH]1`, the figure is over 50 µM; as for `Cc1ccc(NC2=CC(=NS(=O)(=O)c3cccs3)c3ccccc3C2=O)c(C)c1`, over 50 µM; as for `CN1C(=O)N(C)C(=O)C2(Sc3ccccc3C2=O)C1=O` [1',3'-dimethylspiro[benzothiophene-2,5'-hexahydropyrimidine]-2',3,4',6'-diquinone], over 50 µM.
For the compound `Cc1ccc2c(c1)CC1(CN2C)C(=O)NC(=O)N(c2ccccc2C)C1=O` (configuration not stated) [1',6'-dimethyl-1-(2-methylphenyl)spiro[1,3-diazinane-5,3'-2,4-dihydroquinoline]-2,4,6-trione], the half-maximal effective concentration (EC50) is over 50 µM.
In the case of `Cc1nc2c(=O)n(C)c(=O)nc-2n(C)n1` [1,3,6-Trimethyl-1H-pyrimido[5,4-e][1,2,4]triazine-5,7-dione] it was over 50 µM; in that of `Cn1c(=O)c2c(ncn2CCCc2ccccc2)n(C)c1=O` [1,3-Dimethyl-7-(3-phenyl-propyl)-3,7-dihydro-purine-2,6-dione], over 50 µM; in that of `Cc1ccc(CNC(=O)c2cc3c(=O)n(C)c4ccccc4c3n2C)cc1` [1,5-dimethyl-N-[(4-methylphenyl)methyl]-4-oxidanylidene-pyrrolo[3,2-c]quinoline-2-carboxamide], over 50 µM.
As for `O=C(Nc1ccccn1)C1CCN(S(=O)(=O)c2cccc3nonc23)CC1` [1-(2,1,3-benzoxadiazol-4-ylsulfonyl)-N-(2-pyridinyl)-4-piperidinecarboxamide], the figure is over 50 µM.
As for `Cn1c(=O)c(NCCO)c2c3c(cccc31)C(=O)c1ccccc1-2` [1-(2-Hydroxy-ethylamino)-3-methyl-3H-naphtho[1,2,3-de]quinoline-2,7-dione], the figure is over 50 µM; as for `COc1cc(S(=O)(=O)N2CCCCCC2)ccc1-n1cnnn1` [1-(3-Methoxy-4-tetrazol-1-yl-benzenesulfonyl)-azepane], over 50 µM; as for `COc1ccc(CC2NCCC3(O)CCCCC23)cc1` (configuration not stated) [1-(4-Methoxy-benzyl)-octahydro-isoquinolin-4a-ol], over 50 µM.
`O=C1CN(c2ccc(Br)cc2)C(=O)N1CC(=O)N1CCCc2ccccc21` [1-(4-bromophenyl)-3-[2-(3,4-dihydro-1(2H)-quinolinyl)-2-oxoethyl]-2,4-imidazolidinedione] displayed an EC50 of over 50 µM.
As for `CCCSc1nc(N2CCOCC2)c2c(c1C#N)CCCC2` [1-(4-morpholinyl)-3-(propylthio)-5,6,7,8-tetrahydroisoquinoline-4-carbonitrile], the figure is over 50 µM.
As for `CS(=O)(=O)N1CCN(C/C=C/c2ccccc2)CC1` [1-(methylsulfonyl)-4-(3-phenyl-2-propen-1-yl)piperazine], the figure is over 50 µM; as for `Fc1ccc(Cn2nnnc2CN2CCN(C3CCCC3)CC2)cc1` [1-Cyclopentyl-4-[1-(4-fluoro-benzyl)-1H-tetrazol-5-ylmethyl]-piperazine], over 50 µM; as for `NC(=O)C1(N2CCCCC2)CCN(C(=O)NC2CCCCC2)CC1` [1-N-cyclohexyl-4-piperidin-1-ylpiperidine-1,4-dicarboxamide], over 50 µM.
Turning to `CC(=O)N1CCc2cc(Br)cc(S(=O)(=O)NCc3ccccn3)c21` [1-acetyl-5-bromo-N-(2-pyridinylmethyl)-2,3-dihydroindole-7-sulfonamide], the EC50 is over 50 µM.
Compound `CCOC(=O)c1cc2n(c1N)-c1ccccc1C2=O` [1-amino-4-keto-pyrrol[1,2-a]indole-2-carboxylic acid ethyl ester] had an EC50 of over 50 µM.
In the case of `O=C(c1ccc(-n2cnnn2)cc1)N1CCCCC1` [1-piperidinyl-[4-(1-tetrazolyl)phenyl]methanone] it was over 50 µM; in that of `Cn1c(-c2cc3ccc(OC(=O)C(C)(C)C)cc3oc2=O)nc2ccccc21` [2,2-Dimethyl-propionic acid 3-(1-methyl-1H-benzoimidazol-2-yl)-2-oxo-2H-chromen-7-yl ester], over 50 µM.
As for `O=C(Nc1cccn(Cc2c(Cl)cccc2Cl)c1=O)c1c(Cl)cccc1Cl` [2,6-dichloro-N-[1-(2,6-dichlorobenzyl)-2-keto-3-pyridyl]benzamide], the figure is over 50 µM; as for `Nc1cc(-c2ccc(Br)cc2)nn1S(=O)(=O)c1cccc2nsnc12` [2-(2,1,3-benzothiadiazol-4-ylsulfonyl)-5-(4-bromophenyl)-3-pyrazolamine], over 50 µM; as for `O=C(O)C1CCCCC1C(=O)Nc1ccc2c(c1)OCCO2` (configuration not stated) [2-(2,3-dihydro-1,4-benzodioxin-6-ylcarbamoyl)cyclohexane-1-carboxylic acid], over 50 µM.
With `COc1ccccc1C1SCCN1S(=O)(=O)c1cccc(C(F)(F)F)c1` (configuration not stated) [2-(2-Methoxy-phenyl)-3-(3-trifluoromethyl-benzenesulfonyl)-thiazolidine], the EC50 is over 50 µM.
As for `NC(=O)Cn1c(S(=O)(=O)Cc2ccccc2)nc2ccccc21` [2-(2-benzylsulfonylbenzimidazol-1-yl)acetamide], the figure is over 50 µM.
As for `COc1ccc(Nc2oc(-c3ccccc3Cl)nc2C#N)cc1` [2-(2-chlorophenyl)-5-(4-methoxyanilino)-1,3-oxazole-4-carbonitrile], the figure is over 50 µM.
As for `Cc1nn(C(C)C(=O)N2CCCCC2)c(=O)c2c1sc1ccccc12` (configuration not stated) [2-(2-keto-1-methyl-2-piperidino-ethyl)-4-methyl-benzothiopheno[2,3-d]pyridazin-1-one], the figure is over 50 µM; as for `O=C(Cc1ccc(Cl)cc1)NCCN1CCCC1` [2-(4-Chloro-phenyl)-N-(2-pyrrolidin-1-yl-ethyl)-acetamide], over 50 µM; as for `CNC(=O)CC(C(=O)O)c1ccc(OCC(C)C)cc1` (configuration not stated) [2-(4-Isobutoxy-phenyl)-N-methyl-succinamic acid], over 50 µM.
`Cc1ccc(OCC(=O)Nc2ccc(N3CCOCC3)cc2)cc1` [2-(4-methylphenoxy)-N-(4-morpholin-4-ylphenyl)acetamide]: the half-maximal effective concentration (EC50) is over 50 µM.
In the case of `C=CCSc1nccc(-c2cc(Cl)sc2Cl)n1` [2-(allylsulfanyl)-4-(2,5-dichloro-3-thienyl)pyrimidine] it was over 50 µM.
In the case of `CCNC(=O)NC(=O)C(C)OC(=O)c1cccnc1SC` (configuration not stated) [2-(methylthio)-3-pyridinecarboxylic acid [1-(ethylcarbamoylamino)-1-oxopropan-2-yl] ester] it was over 50 µM; in that of `Nc1ccc2c(c1)C(=O)C(=O)c1ccccc1-2` [2-Amino-phenanthrene-9,10-dione], over 50 µM.
As for `O=C(CC1C(=O)NCCN1C(=S)Nc1ccccc1)Nc1ccc2c(c1)OCCO2` (configuration not stated) [2-[1-(anilinocarbonothioyl)-3-oxo-2-piperazinyl]-N-(2,3-dihydro-1,4-benzodioxin-6-yl)acetamide], the figure is over 50 µM; as for `O=C(CN1C(=O)c2ccccc2C1=O)N1CCN(c2nnc(-c3ccccc3)c3ccccc23)CC1` [2-[2-keto-2-[4-(4-phenylphthalazin-1-yl)piperazino]ethyl]isoindoline-1,3-quinone], over 50 µM; as for `CCC(Sc1nc2nnc(C)c-2c(N)n1-c1cccc(Cl)c1)C(=O)NCCOC` (configuration not stated) [2-[4-amino-5-(3-chlorophenyl)-3-methylpyrazolo[3,4-d]pyrimidin-6-yl]sulfanyl-N-(2-methoxyethyl)butanamide], over 50 µM.
With `O=NCc1cc(Br)ccc1OCC(=O)O` [2-[4-bromanyl-2-(hydroxyiminomethyl)phenoxy]ethanoic acid], the EC50 is over 50 µM.
In the case of `CCN1C(=O)/C(=C/c2nc3ccccc3c(=O)n2-c2ccccc2)c2ccccc21` [2-[(1-ethyl-2-oxo-1,2-dihydro-3H-indol-3-ylidene)methyl]-3-phenyl-4(3H)-quinazolinone] it was over 50 µM.
Compound `COc1ccc(S(=O)(=O)N(C)CC(=O)Nc2ccccc2C(F)(F)F)cc1` [2-[(4-methoxyphenyl)sulfonyl-methyl-amino]-N-[2-(trifluoromethyl)phenyl]acetamide] returned an EC50 of over 50 µM.
In turn, `CCn1ncc(CN2CCN(C(=O)Nc3ccccc3C(=O)OC)CC2)c1C` [2-[[4-[(1-ethyl-5-methyl-pyrazol-4-yl)methyl]piperazine-1-carbonyl]amino]benzoic acid methyl ester] registered an EC50 of over 50 µM.
In the case of `CCn1c(SCC(N)=O)nnc1-c1ccc(S(=O)(=O)N2CCN(C)CC2)cc1` [2-[[4-ethyl-5-[4-(4-methylpiperazin-1-yl)sulfonylphenyl]-1,2,4-triazol-3-yl]sulfanyl]acetamide] it was over 50 µM; in that of `COC(=O)CNC(=O)C12CC3(C)CC(C)(CC(C)(C3)C1)C2` [2-[[oxo-(3,5,7-trimethyl-1-adamantyl)methyl]amino]acetic acid methyl ester], over 50 µM.
As for `Cc1oc2c(c1C(=O)c1ccccc1)C(=O)C(=O)c1ccccc1-2` [2-methyl-3-(phenylcarbonyl)benzo[g][1]benzofuran-4,5-dione], the figure is over 50 µM; as for `COc1cc(OC)cc(C(=O)NCCCN2CCOCC2)c1` [3,5-Dimethoxy-N-(3-morpholin-4-yl-propyl)-benzamide], over 50 µM; as for `Cc1cccc(-n2c(CCn3nc(C)c([N+](=O)[O-])c3C)n[nH]c2=S)c1` [3-(2-{4-nitro-3,5-dimethyl-1H-pyrazol-1-yl}ethyl)-4-(3-methylphenyl)-5-sulfanyl-4H-1,2,4-triazole], over 50 µM.
`Cc1cc(C)n(-c2nnc3n2N=C(c2ccccc2)CS3)n1` [3-(3,5-dimethyl-1-pyrazolyl)-6-phenyl-7H-[1,2,4]triazolo[3,4-b][1,3,4]thiadiazine] had an EC50 of over 50 µM.
As for `Cn1nc(-c2ccc(Cl)cc2)nc2c(=O)n(C)c(=O)nc1-2` [3-(4-Chloro-phenyl)-1,6-dimethyl-1H-pyrimido[5,4-e][1,2,4]triazine-5,7-dione], the figure is over 50 µM.
As for `COc1ccc(Cn2c(=O)sc3ccccc32)cc1` [3-(4-Methoxy-benzyl)-3H-benzothiazol-2-one], the figure is over 50 µM; as for `COC(=O)CCc1c(C)[nH]c(=S)[nH]c1=O` [3-(6-methyl-4-oxo-2-sulfanylidene-1H-pyrimidin-5-yl)propanoic acid methyl ester], over 50 µM.
